Laboratory results reported in patent publication US7754741B2, “Pyridine derivatives as fungicidal compounds” (Bayer Cropscience S.A., priority 2003, dated 2010).

Experiments:
Settings in all cases: 330 ppm; comparison compounds of WO 01/11965
Alternaria brassicae = assay: In vivo test on Alternaria brassicae (leaf spot of crucifers)
Experimental: In Vivo Test on Alternaria brassicae (Leaf Spot of crucifers)
(§1) The active ingredient tested is prepared by potter homogenisation in a concentrated suspension type formulation at 100 g/l. This suspension is then diluted with water to obtain the desired active material concentration.
Radish plants (Pernot variety) in starter cups, sown on a 50/50 peat soil-pozzolana substrate and grown at 18-20° C., are treated at the cotyledon stage by spraying with the aqueous suspension described above.
(§2) Plants, used as controls, are treated with an aqueous solution not containing the active material.
After 24 hours, the plants are contaminated by spraying them with an aqueous suspension of Alternaria brassicae spores (40,000 spores per cm^3). The spores are collected from a 12-13-day-old culture.
The contaminated radish plants are incubated for 6-7 days at about 18° C., under a humid atmosphere.
Grading is carried out 6 to 7 days after the contamination, in comparison with the control plants.

Botrytis cinerea = assay: In vivo test on Botrytis cinerea (cucumber grey mould)
Experimental: In Vivo Test on Botrytis cinerea (Cucumber Grey Mould)
as §1
(§3) Cucumber plants (Marketer variety) in starter cups, sown on a 50/50 peat soil-pozzolana substrate and grown at 18-20° C., are treated at the cotyledon Z11 stage by spraying with the aqueous suspension described above. Plants, used as controls, are treated with an aqueous solution not containing the active material.
After 24 hours, the plants are contaminated by depositing drops of an aqueous suspension of Botrytis cinerea spores (150,000 spores per ml) on upper surface of the leaves. The spores are collected from a 15-day-old culture and are suspended in a nutrient solution composed of: • 20 g/L of gelatin • 50 g/L of cane sugar • 2 g/L of NH4NO3 • 1 g/L of KH2PO4
The contaminated cucumber plants are settled for 5/7 days in a climatic room at 15-11° C. (day/night) and at 80% relative humidity.
Grading is carried out 5/7 days after the contamination, in comparison with the control plants. Under these conditions, good (at least 50%) to total protection is observed at a dose of 330 ppm with the following compounds :B-7, B-8, B-13, B-14, C-3, C-12, C-13, C-14, C-15, C-16, D-4, D-5, E-4, H-1, H-2, H-4, H-7, H-9, H-22, J-1, J-2, J-3, J-19, J-31, J-32, J-33, J-34, J-35, J-37, J-39, J-43, J-44, R-1, R-10, R-23, R-24, R-26, R-31, V-1, V-8.

Peronospora brassicae = assay: In vivo test on Peronospora brassicae (cabbage downy mildew)
Experimental: In Vivo Test on Peronospora brassicae (Cabbage Downy Mildew)
as §1
Cabbage plants (Eminence variety) in starter cups, sown on a 50/50 peat soil-pozzolana substrate and grown at 18-20° C., are treated at the cotyledon stage by spraying with the aqueous suspension described above.
as §2
After 24 hours, the plants are contaminated by spraying them with an aqueous suspension of Peronospora brassicae spores (50,000 spores per ml). The spores are collected from infected plant.
The contaminated cabbage plants are incubated for 5 days at 20° C., under a humid atmosphere.
Grading is carried out 5 days after the contamination, in comparison with the control plants.
Under these conditions, good (at least 50%) to total protection is observed at a dose of 330 ppm with the following compounds :B-6,B-7, J-46, J-59.

Pyrenophora teres = assay: In vivo test on Pyrenophora teres (barley net blotch)
Experimental: In Vivo Test on Pyrenophora teres (Barley Net Blotch)
as §1
as §3, with “Barley” for “Cucumber”, “(Express” for “(Marketer”, “12°” for “18-20°”, “1-leaf” for “cotyledon Z11”, “stage (10 cm tall)” for “stage”
After 24 hours, the plants are contaminated by spraying them with an aqueous suspension of Pyrenophora teres spores (12,000 spores per ml). The spores are collected from a 12-day-old culture The contaminated barley plants are incubated for 24 hours at about 20° C. and at 100% relative humidity, and then for 12 days at 80% relative humidity.

Row | Compound | efficacy against Alternaria brassicae (Alternaria brassicae) | efficacy against Botrytis cinerea (Botrytis cinerea) | efficacy against Peronospora parasitica (Peronospora brassicae) | efficacy against Pyrenophora teres (Pyrenophora teres)
1 | O=C(Cc1cccs1)NCc1ncc(C(F)(F)F)cc1Cl [compound 101, N-{[3-chloro-5-(trifluoromethyl)-2-pyridinyl]-methyl}-5-thienylacetamide, reference compound] | poor efficacy | no efficacy | no efficacy | –
2 | CCNC(=O)C(Cc1ncc(C(F)(F)F)cc1Cl)NC(=O)c1cccc([N+](=O)[O-])c1 (stereo not drawn) [compound 307, N-{1-ethylcarbamoyl-2-[3-chloro-5-(trifluoromethyl)-2-pyridinyl]ethyl}-3-nitrobenzamide, reference compound] | poor efficacy | no efficacy | no efficacy | poor efficacy
3 | CCNC(=O)C(Cc1ncc(C(F)(F)F)cc1Cl)NC(=O)c1ccccc1Br (stereo not drawn) [compound 310, N-{1-ethylcarbamoyl-2-[3-chloro-5-(trifluoromethyl)-2-pyridinyl]ethyl}-2-bromobenzamide, reference compound] | poor efficacy | no efficacy | no efficacy | poor efficacy
4 | CNC(=O)C(Cc1ncc(C(F)(F)F)cc1Cl)NC(=O)c1ccc(-c2ccccc2)cc1 (stereo not drawn) [compound 316, N-{1-methylcarbamoyl-2-[3-chloro-5-(trifluoromethyl)-2-pyridinyl]ethyl}-4-phenylbenzamide, reference compound] | poor efficacy | no efficacy | no efficacy | poor efficacy
